Source: the supplement of paper PMC10307832

Legend:
Test in all cases: relative viability (nuclei count vs DMSO), 5 days (fraction); higher = more cells survive
[1] = compound: CCN(CC)CCNC(=O)c1c(C)[nH]c(/C=C2\C(=O)Nc3ccc(F)cc32)c1C [Sunitinib] + CS(=O)(=O)CCNCc1ccc(-c2ccc3ncnc(Nc4ccc(OCc5cccc(F)c5)c(Cl)c4)c3c2)o1 [Lapatinib] (partner 2 µM)
Summary of the method: (§1)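 For relative viability, nuclei counts in treated wells were divided by those in vehicle wells. Lung cancer cell lines had been pin-tool dosed in 1536-well plates the day after seeding and cultured for 5 days, then fixed and stained in one step (final 0.05% Triton X-100, 1% formaldehyde, 1 ug/ml Hoechst) and imaged at 4×. Doses were one drug alone or a fixed anchor-drug dose plus five library-drug doses (not always all listed) in √10 steps, and values are duplicate-plate medians.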

[2] = compound: CCN(CC)CCNC(=O)c1c(C)[nH]c(/C=C2\C(=O)Nc3ccc(F)cc32)c1C [Sunitinib] + CC(=O)Nc1cccc(-n2c(=O)n(C3CC3)c(=O)c3c(Nc4ccc(I)cc4F)n(C)c(=O)c(C)c32)c1 [Trametinib] (partner 0.02 µM)
Summary of the method: as §1

[3] = compound: CCN(CC)CCNC(=O)c1c(C)[nH]c(/C=C2\C(=O)Nc3ccc(F)cc32)c1C [Sunitinib] + O=C(c1cc(Cc2n[nH]c(=O)c3ccccc23)ccc1F)N1CCN(C(=O)C2CC2)CC1 [Olaparib] (partner 8 µM)
Summary of the method: as §1

[4] = compound: CCN(CC)CCNC(=O)c1c(C)[nH]c(/C=C2\C(=O)Nc3ccc(F)cc32)c1C [Sunitinib] + N=C(N)NC(=N)NCCc1ccccc1 [Phenformin] (partner 250 µM)
Summary of the method: as §1

Cell Line: COR-L23
- relative viability ([1]; first compound 0.02 µM): 0.71
- relative viability ([1]; first compound 0.06325 µM): 1.18
- relative viability ([1]; first compound 0.2 µM): 0.983
- relative viability ([1]; first compound 0.6325 µM): 1.14
- relative viability ([1]; first compound 2 µM): 0.951
- relative viability ([2]; first compound 0.02 µM): 0.466
- relative viability ([2]; first compound 0.06325 µM): 0.57
- relative viability ([2]; first compound 0.2 µM): 0.548
- relative viability ([2]; first compound 0.6325 µM): 0.656
- relative viability ([2]; first compound 2 µM): 0.547
- relative viability ([3]; first compound 0.02 µM): 0.317
- relative viability ([3]; first compound 0.06325 µM): 0.349
- relative viability ([3]; first compound 0.2 µM): 0.361
- relative viability ([3]; first compound 0.6325 µM): 0.385
- relative viability ([3]; first compound 2 µM): 0.351
- relative viability ([4]; first compound 0.02 µM): 0.421
- relative viability ([4]; first compound 0.06325 µM): 0.482
- relative viability ([4]; first compound 0.2 µM): 0.469
- relative viability ([4]; first compound 0.6325 µM): 0.443
- relative viability ([4]; first compound 2 µM): 0.461

Cell Line: LK-2
- relative viability ([1]; first compound 0.02 µM): 0.773
- relative viability ([1]; first compound 0.2 µM): 1.15
- relative viability ([1]; first compound 0.6325 µM): 0.939
- relative viability ([1]; first compound 2 µM): 0.866
- relative viability ([2]; first compound 0.02 µM): 0.498
- relative viability ([2]; first compound 0.06325 µM): 0.809
- relative viability ([2]; first compound 0.2 µM): 0.858
- relative viability ([2]; first compound 0.6325 µM): 0.747
- relative viability ([2]; first compound 2 µM): 0.964
- relative viability ([3]; first compound 0.02 µM): 0.668
- relative viability ([3]; first compound 0.06325 µM): 0.82
- relative viability ([3]; first compound 0.2 µM): 0.926
- relative viability ([3]; first compound 0.6325 µM): 0.617
- relative viability ([3]; first compound 2 µM): 0.6
- relative viability ([4]; first compound 0.02 µM): 0.224
- relative viability ([4]; first compound 0.06325 µM): 0.427
- relative viability ([4]; first compound 0.2 µM): 0.406
- relative viability ([4]; first compound 0.6325 µM): 0.494
- relative viability ([4]; first compound 2 µM): 0.249

Cell Line: SK-LU-1
- relative viability ([1]; first compound 0.02 µM): 0.942
- relative viability ([1]; first compound 0.06325 µM): 0.853
- relative viability ([1]; first compound 0.2 µM): 1.06
- relative viability ([1]; first compound 0.6325 µM): 1.02
- relative viability ([1]; first compound 2 µM): 0.809
- relative viability ([2]; first compound 0.02 µM): 0.432
- relative viability ([2]; first compound 0.06325 µM): 0.518
- relative viability ([2]; first compound 0.2 µM): 0.545
- relative viability ([2]; first compound 0.6325 µM): 0.537
- relative viability ([2]; first compound 2 µM): 0.525
- relative viability ([3]; first compound 0.02 µM): 0.422
- relative viability ([3]; first compound 0.06325 µM): 0.494
- relative viability ([3]; first compound 0.2 µM): 0.555
- relative viability ([3]; first compound 0.6325 µM): 0.491
- relative viability ([3]; first compound 2 µM): 0.532
- relative viability ([4]; first compound 0.02 µM): 0.46
- relative viability ([4]; first compound 0.06325 µM): 0.63
- relative viability ([4]; first compound 0.2 µM): 0.586
- relative viability ([4]; first compound 0.6325 µM): 0.523
- relative viability ([4]; first compound 2 µM): 0.409

Cell Line: NCI-H1651
- relative viability ([1]; first compound 0.02 µM): 0.766
- relative viability ([1]; first compound 0.06325 µM): 1.21
- relative viability ([1]; first compound 0.2 µM): 1.06
- relative viability ([1]; first compound 0.6325 µM): 0.893
- relative viability ([1]; first compound 2 µM): 0.923
- relative viability ([2]; first compound 0.02 µM): 0.801
- relative viability ([2]; first compound 0.2 µM): 0.901
- relative viability ([2]; first compound 2 µM): 0.847
- relative viability ([3]; first compound 0.02 µM): 0.213
- relative viability ([3]; first compound 0.06325 µM): 0.196
- relative viability ([3]; first compound 0.2 µM): 0.199
- relative viability ([3]; first compound 0.6325 µM): 0.17
- relative viability ([3]; first compound 2 µM): 0.179
- relative viability ([4]; first compound 0.02 µM): 0.289
- relative viability ([4]; first compound 0.06325 µM): 0.332
- relative viability ([4]; first compound 0.2 µM): 0.352
- relative viability ([4]; first compound 0.6325 µM): 0.353
- relative viability ([4]; first compound 2 µM): 0.368

Cell Line: NCI-H2126
- relative viability ([1]; first compound 0.02 µM): 0.677
- relative viability ([1]; first compound 0.06325 µM): 0.781
- relative viability ([1]; first compound 0.2 µM): 0.808
- relative viability ([1]; first compound 0.6325 µM): 0.809
- relative viability ([1]; first compound 2 µM): 0.807
- relative viability ([2]; first compound 0.02 µM): 0.545
- relative viability ([2]; first compound 0.06325 µM): 0.59
- relative viability ([2]; first compound 0.2 µM): 0.612
- relative viability ([2]; first compound 0.6325 µM): 0.573
- relative viability ([2]; first compound 2 µM): 0.605
- relative viability ([3]; first compound 0.02 µM): 0.924
- relative viability ([3]; first compound 0.06325 µM): 0.978
- relative viability ([3]; first compound 0.2 µM): 0.978
- relative viability ([3]; first compound 0.6325 µM): 1
- relative viability ([3]; first compound 2 µM): 0.884
- relative viability ([4]; first compound 0.02 µM): 0.509
- relative viability ([4]; first compound 0.06325 µM): 0.534
- relative viability ([4]; first compound 0.2 µM): 0.537
- relative viability ([4]; first compound 0.6325 µM): 0.561
- relative viability ([4]; first compound 2 µM): 0.517

Cell Line: NCI-H596
- relative viability ([1]; first compound 0.02 µM): 0.987
- relative viability ([1]; first compound 0.06325 µM): 1.14
- relative viability ([1]; first compound 0.2 µM): 1.22
- relative viability ([1]; first compound 0.6325 µM): 1.19
- relative viability ([1]; first compound 2 µM): 1.08
- relative viability ([2]; first compound 0.02 µM): 0.762
- relative viability ([2]; first compound 0.06325 µM): 0.86
- relative viability ([2]; first compound 0.2 µM): 0.723
- relative viability ([2]; first compound 2 µM): 1.02
- relative viability ([3]; first compound 0.02 µM): 0.688
- relative viability ([3]; first compound 0.06325 µM): 0.678
- relative viability ([3]; first compound 0.2 µM): 0.679
- relative viability ([3]; first compound 0.6325 µM): 0.686
- relative viability ([3]; first compound 2 µM): 0.651
- relative viability ([4]; first compound 0.02 µM): 0.641
- relative viability ([4]; first compound 0.06325 µM): 0.816
- relative viability ([4]; first compound 0.2 µM): 0.829
- relative viability ([4]; first compound 0.6325 µM): 0.792
- relative viability ([4]; first compound 2 µM): 0.723

Cell Line: NCI-H1734
- relative viability ([1]; first compound 0.02 µM): 0.968
- relative viability ([1]; first compound 0.06325 µM): 1.16
- relative viability ([1]; first compound 0.2 µM): 1.35
- relative viability ([1]; first compound 0.6325 µM): 1.18
- relative viability ([1]; first compound 2 µM): 1.05
- relative viability ([2]; first compound 0.02 µM): 0.595
- relative viability ([2]; first compound 0.06325 µM): 0.665
- relative viability ([2]; first compound 0.2 µM): 0.747
- relative viability ([2]; first compound 0.6325 µM): 0.653
- relative viability ([2]; first compound 2 µM): 0.644
- relative viability ([3]; first compound 0.02 µM): 0.552
- relative viability ([3]; first compound 0.06325 µM): 0.618
- relative viability ([3]; first compound 0.2 µM): 0.691
- relative viability ([3]; first compound 0.6325 µM): 0.619
- relative viability ([3]; first compound 2 µM): 0.539
- relative viability ([4]; first compound 0.02 µM): 0.345
- relative viability ([4]; first compound 0.06325 µM): 0.46
- relative viability ([4]; first compound 0.2 µM): 0.474
- relative viability ([4]; first compound 0.6325 µM): 0.392
- relative viability ([4]; first compound 2 µM): 0.358
